In the test the target is PSMA (Homo sapiens, UniProt Q04609). Kind of test: measured PSMA affinities (ka, kd, KD) of Dap(Me) substituted bicycles, Table 1. The test is classed as binding. The following applies: for ka: association rate; for kd: dissociation rate.

“And” between values parts separate entries of the source, which are not always exact repeats. Equal entries are not always repeated.

Sequence of PSMA (Q04609 whole entry): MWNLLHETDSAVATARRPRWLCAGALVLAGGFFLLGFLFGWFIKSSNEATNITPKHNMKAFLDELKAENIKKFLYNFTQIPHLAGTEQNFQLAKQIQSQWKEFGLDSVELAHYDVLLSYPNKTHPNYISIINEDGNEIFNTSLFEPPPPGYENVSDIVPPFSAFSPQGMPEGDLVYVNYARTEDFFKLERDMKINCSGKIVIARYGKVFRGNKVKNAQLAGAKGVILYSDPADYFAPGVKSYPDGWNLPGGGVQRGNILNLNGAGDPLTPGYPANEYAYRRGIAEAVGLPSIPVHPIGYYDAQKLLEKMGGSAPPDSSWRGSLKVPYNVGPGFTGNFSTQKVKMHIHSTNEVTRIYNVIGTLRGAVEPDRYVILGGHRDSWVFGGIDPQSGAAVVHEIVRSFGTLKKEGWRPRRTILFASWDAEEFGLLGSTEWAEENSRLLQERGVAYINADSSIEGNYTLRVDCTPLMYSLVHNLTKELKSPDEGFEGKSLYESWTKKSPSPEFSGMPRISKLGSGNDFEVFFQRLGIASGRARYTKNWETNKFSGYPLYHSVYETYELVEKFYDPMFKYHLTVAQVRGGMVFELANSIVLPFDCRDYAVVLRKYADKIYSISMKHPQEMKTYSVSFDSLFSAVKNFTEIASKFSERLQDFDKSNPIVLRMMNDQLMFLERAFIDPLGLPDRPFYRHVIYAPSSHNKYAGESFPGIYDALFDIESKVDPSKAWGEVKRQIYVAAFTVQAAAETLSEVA

For the substance “[Ac][Gla]V[Dap(Me)]WDCF[Nle][Nle]EDGT[Dap(Me)]A [BCY00009312]”, the ka was 1.01E+05 M1s1 and 7.35E+04 M1s1; the kd is 7.77E−03 s1 and 1.21E−02 s1.

As for “[Ac][dE]V[Dap(Me)]KDCF[Nle][Nle]EDGT[Dap(Me)]A [BCY00009314]”, the ka was 3.79E+04 M1s1 and the kd is reported as 3.86E−02 s1.

In turn, “[Ac][dE]V[Dap(Me)]WDCFL[Nle]EDGT[Dap(Me)]A [BCY00009306]” showed a ka of 9.04E+04 M1s1 and a kd of 1.97E−02 s1.

Regarding “[Ac][dE]V[Dap(Me)]WDCFY[Nle]EDGT[Dap(Me)]A [BCY00009308]”, the ka was determined as 8.73E+04 M1s1 and the kd was 2.88E−02 s1.

For “[Ac][dE]V[Dap(Me)]WDCF[Hse(Me)][Nle]EDGT[Dap(Me)]A [BCY00009305]”, the ka stood at 4.32E+04 M1s1 and the kd amounted to 5.35E−02 s1.

“[Ac][dE]V[Dap(Me)]WDCF[Nle]LEDGT[Dap(Me)]A [BCY00009310]” had a ka of 5.93E+04 M1s1 and a kd of 4.32E−02 s1.

Turning to “[Ac][dE]V[Dap(Me)]WDCF[Nle][Hse(Me)]EDGT[Dap(Me)]A [BCY00009309]”, the ka was 5.17E+04 M1s1 and the kd is 2.93E−01 s1.

For the substance “[Ac][dE]V[Dap(Me)]WDCF[Nle][Nle]EDGT[Dap(Me)]A [BCY00009300]”, the ka is 7.04E+04 M1s1 and the kd amounted to 1.02E−02 s1.

Substance “[Ac][dE]V[Dap(Me)]WDCF[Nle][tBuAla]EDGT[Dap(Me)]A [BCY00009311]” had a ka of 2.51E+04 M1s1 and a kd of 3.10E−03 s1.

With “[Ac][dE]V[Dap(Me)]WDCF[tBuAla][Nle]EDGT[Dap(Me)]A [BCY00009307]”, the ka was 6.71E+04 M1s1 and the kd is listed as 3.26E−02 s1.

As to “[Ac][dE]V[Dap(Me)]WDCK[Nle][Nle]EDGT[Dap(Me)]A [BCY00009315]”, the ka is reported as 2.81E+04 M1s1 and the kd turned out to be 4.62E−02 s1.

“[Ac][dE]V[Dap(Me)]WDCY[Nle][Nle]EDGT[Dap(Me)]A [BCY00009304]” returned a ka of 1.03E+05 M1s1 and a kd of 1.24E−02 s1.

“[Ac][dE]V[Dap(Me)][2Nal]DCF[Nle][Nle]EDGT[Dap(Me)]A [BCY00009303]” gave a ka of 8.74E+04 M1s1 and a kd of 1.86E−02 s1.

In turn, “[Glutarate][dE]V[Dap(Me)]WDCF[Nle][Nle]EDGT[Dap(Me)]A [BCY00009313]” showed a ka of 1.24E+05 M1s1 and a kd of 9.81E−03 s1.

The values above are taken from patent US20220194983A1, “PEPTIDE LIGANDS FOR BINDING TO PSMA” (BicycleTx Limited, priority 2018, published 2022).
